Test results taken from the NIST ThermoML archive (doi:10.1021/je050389b).

Experiment: xn = mol fraction of the nth substance listed
Settings: Liquid

CCCCCC(=O)OCC [ethyl hexanoate] + CCO
Settings	mass density, 288.15 K [kg/m3]	mass density, 298.15 K [kg/m3]	mass density, 308.15 K [kg/m3]	mass density, 318.15 K [kg/m3]	viscosity, 288.15 K [mPa·s]	viscosity, 298.15 K [mPa·s]	viscosity, 308.15 K [mPa·s]	viscosity, 318.15 K [mPa·s]
100.5 kPa, x1 = 0.05	–	–	–	–	1.241	1.031	0.866	0.732
100.5 kPa, x1 = 0.1	–	–	–	–	1.182	0.982	0.829	0.71
100.5 kPa, x1 = 0.15	–	–	–	–	1.139	0.948	0.806	0.691
100.5 kPa, x1 = 0.2	–	–	–	–	1.106	0.926	0.789	0.676
100.5 kPa, x1 = 0.25	–	–	–	–	1.082	0.909	0.777	0.667
100.5 kPa, x1 = 0.3	–	–	–	–	1.062	0.897	0.769	0.662
100.5 kPa, x1 = 0.35	–	–	–	–	1.051	0.889	0.763	0.659
100.5 kPa, x1 = 0.4	–	–	–	–	1.045	0.883	0.759	0.657
100.5 kPa, x1 = 0.45	–	–	–	–	1.039	0.88	0.758	0.657
100.5 kPa, x1 = 0.5	–	–	–	–	1.037	0.88	0.759	0.658
100.5 kPa, x1 = 0.55	–	–	–	–	1.038	0.882	0.761	0.662
100.5 kPa, x1 = 0.6	–	–	–	–	1.039	0.888	0.765	0.665
100.5 kPa, x1 = 0.65	–	–	–	–	1.045	0.892	0.767	0.668
100.5 kPa, x1 = 0.7	–	–	–	–	1.048	0.896	0.773	0.674
100.5 kPa, x1 = 0.75	–	–	–	–	1.054	0.902	0.779	0.68
100.5 kPa, x1 = 0.8	–	–	–	–	1.064	0.91	0.786	0.686
100.5 kPa, x1 = 0.85	–	–	–	–	1.073	0.919	0.794	0.694
100.5 kPa, x1 = 0.9	–	–	–	–	1.086	0.929	0.803	0.703
100.5 kPa, x1 = 0.95	–	–	–	–	1.1	0.94	0.815	0.712
100.5 kPa, x1 = 1	–	–	–	–	1.102	0.94	0.814	0.711
101 kPa, x1 = 0.05	804.18	795.44	786.59	777.58	–	–	–	–
101 kPa, x1 = 0.1	812.99	804.11	795.12	785.96	–	–	–	–
101 kPa, x1 = 0.15	820.54	811.53	802.42	793.14	–	–	–	–
101 kPa, x1 = 0.2	827.14	818.05	808.85	799.48	–	–	–	–
101 kPa, x1 = 0.25	832.89	823.72	814.44	805.01	–	–	–	–
101 kPa, x1 = 0.3	837.94	828.72	819.38	809.89	–	–	–	–
101 kPa, x1 = 0.35	842.47	833.2	823.82	814.29	–	–	–	–
101 kPa, x1 = 0.4	846.5	837.18	827.76	818.2	–	–	–	–
101 kPa, x1 = 0.45	850.15	840.82	831.37	821.8	–	–	–	–
101 kPa, x1 = 0.5	853.47	844.11	834.63	825.05	–	–	–	–
101 kPa, x1 = 0.55	856.51	847.12	837.64	828.05	–	–	–	–
101 kPa, x1 = 0.6	859.28	849.88	840.39	830.79	–	–	–	–
101 kPa, x1 = 0.65	861.84	852.43	842.94	833.34	–	–	–	–
101 kPa, x1 = 0.7	864.22	854.82	845.33	835.75	–	–	–	–
101 kPa, x1 = 0.75	866.43	857.02	847.54	837.97	–	–	–	–
101 kPa, x1 = 0.8	868.48	859.09	849.63	840.08	–	–	–	–
101 kPa, x1 = 0.85	870.41	861.04	851.59	842.07	–	–	–	–
101 kPa, x1 = 0.9	872.22	862.86	853.45	843.97	–	–	–	–
101 kPa, x1 = 0.95	873.99	864.66	855.27	845.83	–	–	–	–
101 kPa, x1 = 1	875.64	866.29	856.91	847.5	–	–	–	–

CC(=O)OCCC(C)C [3-methylbutyl ethanoate] + CCO
100.5 kPa
Settings	mass density, 288.15 K [kg/m3]	mass density, 298.15 K [kg/m3]	mass density, 308.15 K [kg/m3]	mass density, 318.15 K [kg/m3]	viscosity, 288.15 K [mPa·s]	viscosity, 298.15 K [mPa·s]	viscosity, 308.15 K [mPa·s]	viscosity, 318.15 K [mPa·s]
x1 = 0.05	803.41	794.64	785.74	776.69	1.22	1.011	0.847	0.716
x1 = 0.1	811.89	802.92	793.84	784.6	1.133	0.946	0.799	0.68
x1 = 0.15	819.25	810.13	800.9	791.5	1.072	0.902	0.762	0.651
x1 = 0.2	825.81	816.58	807.21	797.69	1.031	0.866	0.735	0.63
x1 = 0.25	831.66	822.31	812.85	803.22	0.996	0.841	0.716	0.615
x1 = 0.3	836.85	827.42	817.86	808.15	0.968	0.821	0.701	0.605
x1 = 0.35	841.58	832.08	822.44	812.65	0.948	0.805	0.689	0.596
x1 = 0.4	845.81	836.24	826.53	816.69	0.934	0.793	0.68	0.59
x1 = 0.45	849.7	840.07	830.32	820.42	0.924	0.786	0.675	0.586
x1 = 0.5	853.26	843.59	833.79	823.86	0.916	0.779	0.671	0.583
x1 = 0.55	856.53	846.82	836.99	827.03	0.91	0.776	0.668	0.582
x1 = 0.6	859.57	849.83	839.97	829.99	0.907	0.773	0.667	0.582
x1 = 0.65	862.36	852.58	842.71	832.72	0.908	0.773	0.667	0.584
x1 = 0.7	865	855.21	845.33	835.33	0.911	0.775	0.67	0.588
x1 = 0.75	867.44	857.64	847.75	837.75	0.912	0.78	0.675	0.594
x1 = 0.8	869.73	859.93	850.04	840.05	0.916	0.782	0.68	0.601
x1 = 0.85	871.89	862.08	852.2	842.22	0.926	0.791	0.688	0.609
x1 = 0.9	873.95	864.14	854.28	844.34	0.937	0.799	0.697	0.618
x1 = 0.95	875.87	866.09	856.25	846.32	0.939	0.804	0.703	0.625
x1 = 1	877.72	867.91	858.07	848.17	0.94	0.804	0.704	0.627
